From publication PMC2099433, “The binding site for neohesperidin dihydrochalcone at the human sweet taste receptor” (BMC Structural Biology, 2007)
Substitutions are numbered along the chain they refer to. Where a SMILES comes first, the peptide text is derived from it.

Tests used:
[1] = target: T1, hTAS1R2 + hTAS1R3 Y699L^4.60 (Homo sapiens, UniProt Q7RTX0+Q8TE23, Y699L); test: Calcium response (FLIPR), hTAS1R3 mutant coexpressed with hTAS1R2; assay type: cell-based; settings: variant Y699L^4.60; for Emax: read-out: maximal signal (% of wt)
T1 construct: expressed in transfected cells; host or cells: HEK293T cells stably expressing G16Gust44
T1 sequence (Q7RTX0 21-852 Y699L): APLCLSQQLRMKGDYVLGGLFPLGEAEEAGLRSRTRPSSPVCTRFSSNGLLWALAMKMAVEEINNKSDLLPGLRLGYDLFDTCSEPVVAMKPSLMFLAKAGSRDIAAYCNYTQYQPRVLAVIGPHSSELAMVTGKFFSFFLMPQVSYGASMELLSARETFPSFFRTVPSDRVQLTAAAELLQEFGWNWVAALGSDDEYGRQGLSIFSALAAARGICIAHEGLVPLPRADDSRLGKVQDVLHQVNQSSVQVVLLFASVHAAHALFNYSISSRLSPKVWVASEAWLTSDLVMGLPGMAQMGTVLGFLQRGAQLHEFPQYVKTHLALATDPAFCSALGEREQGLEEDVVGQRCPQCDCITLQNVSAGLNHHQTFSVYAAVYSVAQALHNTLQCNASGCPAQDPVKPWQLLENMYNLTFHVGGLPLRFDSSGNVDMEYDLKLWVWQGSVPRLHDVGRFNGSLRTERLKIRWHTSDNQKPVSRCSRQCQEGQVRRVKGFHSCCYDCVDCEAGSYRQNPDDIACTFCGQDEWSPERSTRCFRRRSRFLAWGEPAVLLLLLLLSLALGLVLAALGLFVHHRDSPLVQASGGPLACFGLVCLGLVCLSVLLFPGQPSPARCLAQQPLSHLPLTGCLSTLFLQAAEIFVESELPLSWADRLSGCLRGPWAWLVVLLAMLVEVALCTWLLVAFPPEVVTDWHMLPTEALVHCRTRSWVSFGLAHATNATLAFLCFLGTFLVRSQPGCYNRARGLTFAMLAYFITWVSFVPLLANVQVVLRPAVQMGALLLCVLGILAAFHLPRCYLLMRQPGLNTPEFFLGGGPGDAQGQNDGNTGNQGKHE
T1 sequence (Q8TE23 20-839): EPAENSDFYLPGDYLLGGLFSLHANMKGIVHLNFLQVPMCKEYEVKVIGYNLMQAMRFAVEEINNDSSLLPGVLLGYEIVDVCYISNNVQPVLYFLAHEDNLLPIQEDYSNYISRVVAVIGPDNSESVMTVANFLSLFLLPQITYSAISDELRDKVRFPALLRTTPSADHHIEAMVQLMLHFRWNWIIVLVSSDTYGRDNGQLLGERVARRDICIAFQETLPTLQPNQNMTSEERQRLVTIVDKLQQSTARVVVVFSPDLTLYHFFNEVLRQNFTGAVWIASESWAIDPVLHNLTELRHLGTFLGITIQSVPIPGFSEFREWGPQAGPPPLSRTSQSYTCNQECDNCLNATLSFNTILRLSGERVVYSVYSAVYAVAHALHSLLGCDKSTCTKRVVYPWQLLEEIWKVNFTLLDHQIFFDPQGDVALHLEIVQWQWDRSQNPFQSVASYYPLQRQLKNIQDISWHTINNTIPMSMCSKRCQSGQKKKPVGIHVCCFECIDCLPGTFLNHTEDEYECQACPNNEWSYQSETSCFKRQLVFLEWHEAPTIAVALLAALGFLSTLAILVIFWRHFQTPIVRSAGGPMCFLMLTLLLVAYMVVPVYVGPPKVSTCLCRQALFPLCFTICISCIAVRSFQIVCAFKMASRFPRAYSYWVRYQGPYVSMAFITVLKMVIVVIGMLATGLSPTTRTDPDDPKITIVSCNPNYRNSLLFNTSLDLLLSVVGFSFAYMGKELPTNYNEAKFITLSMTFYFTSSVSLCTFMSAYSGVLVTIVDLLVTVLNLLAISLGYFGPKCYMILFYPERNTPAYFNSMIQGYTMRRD
Outline: (§1)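 HEK293T cells stably expressing chimeric G16Gust44 were transiently transfected with C-terminally HSV-tagged hTAS1R2 and mutant hTAS1R3, then loaded 24 h later with Fluo4-AM for 1 h. Calcium mobilization after sweet-tastant application was read by FLIPR, mock-corrected and expressed as ΔF/F.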

[2] = target: T2, hTAS1R2 + hTAS1R3 L782A^6.55 (Homo sapiens, UniProt Q7RTX0+Q8TE23, L782A); test: as above; assay type: cell-based; settings: variant L782A^6.55; for EC50: (>) EC50 not calculable because saturation is not reached; for Emax: read-out: maximal signal (% of wt)
T2 construct: expressed in transfected cells; host or cells: HEK293T cells stably expressing G16Gust44
T2 sequence (Q8TE23 20-839): T1 sequence (Q8TE23 20-839)
T2 sequence (Q7RTX0 21-852 L782A): T1 sequence (Q7RTX0 21-852 Y699L) with L679Y, L762A
Outline: as §1

EC50 [1]	Emax [1]	EC50 [2]	Emax [2]	Compound
700 ± 100 µM	83 ± 40%	> 3000 µM	50 ± 11%	COc1ccc(CCC(=O)c2c(O)cc(O[C@@H]3O[C@H](CO)[C@@H](O)[C@H](O)[C@H]3O[C@@H]3O[C@@H](C)[C@H](O)[C@@H](O)[C@H]3O)cc2O)cc1O [NHDC, neohesperidin dihydrochalcone]
1600 ± 400 µM	78 ± 9%	1700 ± 300 µM	95 ± 90%	COC(=O)[C@H](Cc1ccccc1)NC(=O)[C@@H](N)CC(=O)O [aspartame] (HELM PEPTIDE1{D.F.[CO[*:1]]}$$$$V2.0)
